Measurements reported in PMC8226474, “Design, Syntheses, and Bioevaluations of Some Novel N^2-Acryloylbenzohydrazides as Chemostimulants and Cytotoxic Agents” (Medicines, 2021).
Values joined by “and” are separate entries in the source; they are usually repeats but may differ in a detail not shown here. Equal values may be shown once. Read-outs that look alike come from different tables or passages of the source.

Assays:
HCT 116 cells [1] = assay: Cytotoxicity assay, HCT 116 colon cancer cells; assay type: cell-based, human; details: for inhibition at 10 µM / inhibition at 100 µM / IC50: Homo sapiens, HCT-116, 48 h; for inhibition at 10 µM / inhibition at 100 µM: read-out: percentage inhibition of HCT 116 cells; for SI (selectivity index): IC50 CRL 1790 / IC50 HCT 116
From the text: (§1) Evaluation of the cytotoxic properties of the compounds presented in Table 1, Table 2, Table 3 and Table 4 was undertaken using the procedure outlined in [7]. In brief, the HCT 116 cells were obtained from the ATCC and cultured in McCoy’s 5A medium. The CRL 1790 cells were obtained from the ATCC and cultured in Minimum Essential Medium. The MCF-7 and MDA-MBA-231 cells were obtained from the Saskatchewan Cancer Agency and cultured in DMEM. In each assay the culture medium was supplemented with 10% fetal bovine serum and 1% penicillin–streptomycin antibiotics. The time of the bioassays was 48 h, unless indicated otherwise. All determinations were carried out in triplicate on three different occasions.

MCF-7 cells = assay: Cytotoxicity assay, MCF-7 breast cancer cells; assay type: cell-based, human; details: for inhibition at 10 µM / inhibition at 100 µM / IC50: Homo sapiens, MCF7, 48 h; for inhibition at 10 µM / inhibition at 100 µM: read-out: percentage inhibition of MCF-7 cells; for IC50 / SI (selectivity index): Table 2; for IC50: read-out: Neoplastic Cells IC50, MCF-7; for SI (selectivity index): IC50 CRL 1790 / IC50 MCF-7
From the text: as §1

MDA-MB-231 cells = assay: Cytotoxicity assay, MDA-MB-231 breast cancer cells; assay type: cell-based, human; details: for inhibition at 10 µM / inhibition at 100 µM / IC50: Homo sapiens, MDA-MB-231, 48 h; for inhibition at 10 µM / inhibition at 100 µM: read-out: percentage inhibition of MDA-MB-231 cells; for IC50 / SI (selectivity index): Table 2; for IC50: read-out: Neoplastic Cells IC50, MDA-MB-231; for SI (selectivity index): IC50 CRL 1790 / IC50 MDA-MB-231
From the text: as §1

HCT 116 cells [2] = assay: Chemosensitization of HCT 116 cells: 1m for 24 h, then 2a or 5-FU for a further 24 h; assay type: cell-based, human; details: for Reduction in Live Cells % 2a (24 h): DMSO figure minus compound figure
From the text: as §1
The next phase of the investigation was to determine whether a representative compound in series 1 chemosensitizes HCT 116 cells to a 3,5-bis(benzylidene)-4-piperidone 2a. […] The colon cancer cells were incubated for 24 h with 1m, and then 2a was added and the incubation was continued for a further 24 h. Different concentrations of both 1m and 2a were employed, and the results are presented as entries 1–12 in Table 3. In addition, the effects of each of 1m, 2a, and 5-FU on HCT 116 cells (which are necessary for the evaluation of whether chemosensitivity occurs) were recorded, and are presented as entries 13–20 in Table 3.
The concentration of 1m in combination 4 is 5 µM, which after 48 h causes a percentage reduction of live cells to 86% (DMSO figure after 48 h, line 20) minus 75% (48 h, line 13), or 11%.
The concentration of 2a in combination 4 is 0.2 µM. This combination leads to a reduction of the percentage of live cells to 91% (DMSO figure after 24 h, line 20) minus 69%, or 22%.
The percentage reduction in live cells caused by a combination of 1m (5 µM) and 2a (0.2 µM), in the absence of chemosensitization, is 11% plus 22%, or 33%.
However, the percentage reduction in cells as indicated on line 4 is 86% (DMSO figure after 48 h) minus 12% (line 4, 48 h figure), or 74%.

CRL 1790 cells = assay: Cytotoxicity assay, non-malignant CRL 1790 colon cells; assay type: cell-based
From the text: as §1

[3] = Table 4, read-out: IC50 HCT 116
[4] = Homo sapiens, 48 h, Table 4, read-out: IC50 CRL 1790
[5] = Table 2, read-out: Neoplastic Cells IC50, HCT 116

## C=CC(=O)NNC(=O)c1ccc(F)cc1 [1b, N^2-Acryloyl-4-fluorobenzohydrazide]
HCT 116 cells [1]
  inhibition at 10 µM: -2.35 ± 2.24%
  inhibition at 100 µM: 60.7 ± 3.22%
MCF-7 cells
  inhibition at 10 µM: -40.1 ± 3.34%
  inhibition at 100 µM: 33.2 ± 3.13%
MDA-MB-231 cells
  inhibition at 10 µM: -7.37 ± 1.52%
  inhibition at 100 µM: 39.9 ± 2.51%

## C=CC(=O)NNC(=O)c1ccc(Br)cc1 [1c, N^2-Acryloyl-4-bromobenzohydrazide]
HCT 116 cells [1]
  inhibition at 10 µM: -3.28 ± 1.5%
  inhibition at 100 µM: 87.9 ± 0.91%
MCF-7 cells
  inhibition at 10 µM: -4.68 ± 3.17%
  inhibition at 100 µM: 46.6 ± 3.35%
other
  melting point: 256 to 259 °C
MDA-MB-231 cells
  inhibition at 10 µM: -16.5 ± 1.45%
  inhibition at 100 µM: 88.7 ± 1.26%

## C=CC(=O)NNC(=O)c1ccccc1Cl [1e, N^2-Acryloyl-2-chlorobenzohydrazide]
HCT 116 cells [1]
  inhibition at 10 µM: 4.3 ± 1.38%
  inhibition at 100 µM: 75.7 ± 1.65%
MCF-7 cells
  inhibition at 10 µM: 8.66 ± 1.81%
  inhibition at 100 µM: 75.8 ± 2.76%
other
  melting point: 165 to 167 °C
MDA-MB-231 cells
  inhibition at 10 µM: -7.15 ± 2.29%
  inhibition at 100 µM: 91.9 ± 4.53%

## C=CC(=O)NNC(=O)c1cccc(Cl)c1 [1f, N^2-Acryloyl-3-chlorobenzohydrazide]
HCT 116 cells [1]
  inhibition at 10 µM: 13.5 ± 1.79%
  inhibition at 100 µM: 95.7 ± 1.71%
MCF-7 cells
  inhibition at 10 µM: -15.5 ± 3.38%
  inhibition at 100 µM: 85.9 ± 2.7%
other
  melting point: 155 to 158 °C
MDA-MB-231 cells
  inhibition at 10 µM: 15.6 ± 3.14%
  inhibition at 100 µM: 98.7 ± 0.92%

## C=CC(=O)NNC(=O)c1ccc(Cl)c(Cl)c1 [1g, N^2-Acryloyl-3,4-dichlorobenzohydrazide]
HCT 116 cells [1]
  inhibition at 10 µM: 6.72 ± 1.97%
  inhibition at 100 µM: > 100%
MCF-7 cells
  inhibition at 10 µM: -50.5 ± 3.27%
  inhibition at 100 µM: 97.4 ± 2.6%
other
  melting point: 172 to 175 °C
MDA-MB-231 cells
  inhibition at 10 µM: -19.4 ± 3.01%
  inhibition at 100 µM: 139.8 ± 1.03%

## C=CC(=O)NNC(=O)c1cccc(C)c1 [1i, N^2-Acryloyl-3-methylbenzohydrazide]
HCT 116 cells [1]
  inhibition at 10 µM: 15.4 ± 2.13%
  inhibition at 100 µM: 93.9 ± 3.35%
MCF-7 cells
  inhibition at 10 µM: -82.8 ± 3.48%
  inhibition at 100 µM: 44.2 ± 2.96%
other
  melting point: 138 to 140 °C
MDA-MB-231 cells
  inhibition at 10 µM: -5.91 ± 3.86%
  inhibition at 100 µM: 53.3 ± 2.89%

## O=C1C(=Cc2ccccc2)CNCC1=Cc1ccccc1 [2a, 3,5-bis(benzylidene)-4-piperidone]
HCT 116 cells [1]; [3]
  IC50: 0.37 ± 0.06 µM
HCT 116 cells [1]; Table 4
  SI (selectivity index): 36.4
HCT 116 cells [2]; 2a 0.1 µM alone, 24 h
  Reduction in Live Cells % 2a (24 h): 8%
HCT 116 cells [2]; 2a 0.2 µM alone, 24 h
  Reduction in Live Cells % 2a (24 h): 22%
HCT 116 cells [2]; 2a 0.4 µM alone, 24 h
  Reduction in Live Cells % 2a (24 h): 43%
HCT 116 cells [2]; entry 16: 2a 0.1 µM alone, 24 h
  Live Cells %: 83 ± 2.28%
HCT 116 cells [2]; entry 16: 2a 0.1 µM alone, 48 h
  Live Cells %: 78 ± 2.12%
HCT 116 cells [2]; entry 17: 2a 0.2 µM alone, 24 h
  Live Cells %: 69% and 69 ± 1.38%
HCT 116 cells [2]; entry 17: 2a 0.2 µM alone, 48 h
  Live Cells %: 52 ± 1.15%
HCT 116 cells [2]; entry 18: 2a 0.4 µM alone, 24 h
  Live Cells %: 48 ± 1.20%
HCT 116 cells [2]; entry 18: 2a 0.4 µM alone, 48 h
  Live Cells %: 32 ± 1.50%
CRL 1790 cells; [4]
  IC50: 13.5 ± 1.99 µM

## O=c1[nH]cc(F)c(=O)[nH]1 [5-FU, 5-fluorouracil, reference compound]
HCT 116 cells [1]
  inhibition at 10 µM: 84.7 ± 2.53%
  inhibition at 100 µM: 94.1 ± 0.96%
HCT 116 cells [1]; [5]
  IC50: 3.77 ± 0.48 µM
HCT 116 cells [1]; [3]
  IC50: 4.11 ± 0.22 µM
HCT 116 cells [1]; Table 2
  SI (selectivity index): 2.92
HCT 116 cells [1]; Table 4
  SI (selectivity index): 2.64
HCT 116 cells [2]; 5-FU 3 µM alone, 24 h
  Reduction in Live Cells % 2a (24 h): 13%
HCT 116 cells [2]; entry 19: 5-FU 3 µM alone, 24 h
  Live Cells %: 78 ± 2.44%
HCT 116 cells [2]; entry 19: 5-FU 3 µM alone, 48 h
  Live Cells %: 55 ± 1.37%
MCF-7 cells
  inhibition at 10 µM: 91.2 ± 3.03%
  inhibition at 100 µM: 99.3 ± 2.87%
  IC50: 2 ± 0.25 µM
  SI (selectivity index): 5.42
MDA-MB-231 cells
  inhibition at 10 µM: 17.4 ± 2.97%
  inhibition at 100 µM: > 100%
  IC50: 15.9 ± 1.65 µM
  SI (selectivity index): 0.68
CRL 1790 cells; Homo sapiens, 48 h, Table 2, read-out: Non-Malignant CRL 1790 Cells IC50
  IC50: 10.8 ± 1.64 µM
CRL 1790 cells; [4]
  IC50: 10.8 ± 1.64 µM

## CC(=O)NNC(=O)c1ccccc1 [6b, N^2-Acetylbenzohydrazide]
HCT 116 cells [1]
  inhibition at 10 µM: -4.89 ± 2.52%
  inhibition at 100 µM: 13.6 ± 3.03%
MCF-7 cells
  inhibition at 10 µM: -93.8 ± 4.15%
  inhibition at 100 µM: -58.7 ± 3.24%
other
  melting point: 171 to 172 °C
MDA-MB-231 cells
  inhibition at 10 µM: -22.6 ± 2.65%
  inhibition at 100 µM: -15.3 ± 3.46%

## O=C(CCNNC(=O)c1ccccc1)NNC(=O)c1ccccc1 [6c, N^2-[3-(Benzoylaminoamino)-1-oxopropyl]-N^1-benzoylhydrazine]
HCT 116 cells [1]
  inhibition at 10 µM: 18.6 ± 3.98%
  inhibition at 100 µM: 96.9 ± 1.86%
MCF-7 cells
  inhibition at 10 µM: 16.1 ± 3.55%
  inhibition at 100 µM: 97.9 ± 2.68%
other
  melting point: 193 to 195 °C
MDA-MB-231 cells
  inhibition at 10 µM: -16 ± 2.91%
  inhibition at 100 µM: 95.6 ± 4.22%

## COc1ccc(C(=O)NNC(=O)CCN2CC(=Cc3ccccc3)C(=O)C(=Cc3ccccc3)C2)cc1OC [7b, 3,5-Bis(benzylidene)-1-[3-(3,4-dimethoxylphenylcarbonylaminoamino)-3-oxo-1-propyl]-4-piperidone]
HCT 116 cells [1]; [3]
  IC50: 3.15 ± 0.33 µM
HCT 116 cells [1]; Table 4
  SI (selectivity index): 3.06
HCT 116 cells [1]; ratio of IC50 values towards HCT 116 cells
  times more potent than 1m: 4.86 times
other
  melting point: 151 to 154 °C
CRL 1790 cells; [4]
  IC50: 9.63 ± 1.62 µM

## COc1ccc(C(=O)NNC(=O)CCN2CC(=Cc3ccc(Cl)cc3)C(=O)C(=Cc3ccc(Cl)cc3)C2)cc1OC [7c, 3,5-Bis(4-chlorobenzylidene)-1-[3-(3,4-dimethoxyphenylcarbonylaminoamino)-3-oxo-1-propyl]-4-piperidone]
HCT 116 cells [1]; [3]
  IC50: 3.4 ± 0.01 µM
HCT 116 cells [1]; Table 4
  SI (selectivity index): 3.60
other
  melting point: 200 to 202 °C
CRL 1790 cells; [4]
  IC50: 12.2 ± 1.22 µM

## N[C@@H](Cc1ccc(N(CCCl)CCCl)cc1)C(=O)O [Melphalan, reference compound]
HCT 116 cells [1]
  inhibition at 10 µM: 33.9 ± 1.81%
  inhibition at 100 µM: 98.7 ± 1.12%
HCT 116 cells [1]; [5]
  IC50: 30.7 ± 2.73 µM
HCT 116 cells [1]; [3]
  IC50: 33.2 ± 1.7 µM
HCT 116 cells [1]; Table 2
  SI (selectivity index): >3.25
HCT 116 cells [1]; Table 4
  SI (selectivity index): >3.02
MCF-7 cells
  inhibition at 10 µM: > 100%
  inhibition at 100 µM: > 100%
  IC50: 12 ± 1.43 µM
  SI (selectivity index): >8.32
MDA-MB-231 cells
  inhibition at 10 µM: 28.6 ± 2.48%
  inhibition at 100 µM: > 100%
  IC50: 52.9 ± 2.32 µM
  SI (selectivity index): >1.90
CRL 1790 cells; Homo sapiens; Table 2; 48 h; read-out: Non-Malignant CRL 1790 Cells IC50
  IC50: > 100 µM
CRL 1790 cells; Homo sapiens; Table 4; 48 h; read-out: IC50 CRL 1790
  IC50: > 100 µM
